Laboratory results published in BindingDB's records for doi:10.1021/jm00350a005 (1982).

Columns and labels:
[1] = target: 5-hydroxytryptamine receptor 1A/1B/1D/1E/1F/2A/2B/2C/3A/3B/3C/3D/3E/4/5A/6/7; experiment: Ability to displace [3H]5-HT binding to 5-hydroxytryptamine receptor using 1 uM LSD as masking ligand, activity is expressed as Kd.
[2] = target: 5-hydroxytryptamine receptor 1A/1B/1D/1E/1F/2A/2B/2C/3A/3B/3C/3D/3E/4/5A/6/7; experiment: Ability to displace [3H]5-HT binding to 5-hydroxytryptamine receptor site using 1 uM LSD as masking ligand, […].
[3] = target: 5-hydroxytryptamine receptor 1A/1B/1D/1E/1F/2A/2B/2C/3A/3B/3C/3D/3E/4/5A/6/7; experiment: Ability to displace [3H]5-HT binding from 5-hydroxytryptamine receptor site using 1 uM LSD as masking ligand
[4] = target: 5-hydroxytryptamine receptor 1A/1B/1D/1E/1F/2A/2B/2C/3A/3B/3C/3D/3E/4/5A/6/7; experiment: Ability to displace [3H]5-HT binding to 5-hydroxytryptamine receptor site using 1 uM LSD as masking ligand

`CSc1ccc2[nH]cc(CCN(C)C)c2c1` showed a Kd [1] of 0.043 µM.

`CN(C)CCc1c[nH]c2cc3c(cc12)OCO3` was tested, and the Kd [2] was 8.4 µM.

`CC(C)N(CCc1c[nH]c2cc3c(cc12)OCO3)C(C)C` showed an IC50 [3] of 933 µM.

For `CSc1cccc2[nH]cc(CCN(C)C)c12`, the IC50 [4] was 151 µM and the Kd [2] was 8.4 µM.
